{
  "source": "paper PMC11944884",
  "about": "“Bioactive Secondary Metabolites of Two Chinese Edible Boletes, Phlebopus portentosus and Butyriboletus roseoflavus” (Molecules, 2025)",
  "origin": "cited, not measured here",
  "tested_on": "head domain of HA",
  "conditions": "molecular docking, ref [56]; cited from earlier work",
  "data": [
    {"smiles": "CC[C@H](CC[C@@H](C)[C@H]1CC[C@H]2[C@@H]3CC=C4C[C@@H](O)CC[C@]4(C)[C@H]3CC[C@]12C)C(C)C", "note": "[β-sitosterol]", "values": [
      {"measurement": "binding affinity to the head domain of HA", "value": "highest binding affinity"}
    ]}
  ]
}
